Assay results as given in patent US7754911B2, “Method for isolating methyl glycine nitrile-N,N-diacetonitriles from an aqueous crude mixture” (BASF Aktiengesellschaft, priority 2005, dated 2010).

Test: solubility of MGDN in water (temperature-dependent)
Assay type: physicochemical
Experimental: MGDN has highly temperature-dependent solubility in water. For instance, only about 0.5% by weight of MGDN dissolves at 10° C. in water or an aqueous ammonium sulfate solution. At approx. 60° C., the solubility is still about 5% by weight. Above approx. 60° C., an emulsion of MGDN and its aqueous solution with more than 5% by weight of dissolved MGDN is present. No phase diagram of the water-MGDN system is known.
The MGDN concentration of the aqueous crude product mixture is generally from 3 to 50% by weight, preferably from 15 to 40% by weight, more preferably from 20 to 35% by weight. A content of dissolved MGDN of 1% by weight corresponds to a crystallization temperature of approx. 20° C., a content of dissolved MCDN of 5% by weight to a crystallization temperature of approx. 55° C. At 10° C., the water solubility of MGDN is still about 0.5% by weight.

In the case of CC(C#N)N(CC#N)CC#N (centres unmarked) [MGDN, methylglycinenitrile-N,N-diacetonitrile], the water solubility (at 10° C.) is reported as “about 0.5 % by weight”, the solubility (at 10° C. in water or an aqueous ammonium sulfate solution) is reported as “about 0.5 % by weight” and the solubility (at approx. 60° C., in water) is reported as “about 5 % by weight”. The “content of dissolved MGDN” value (corresponds to a crystallization temperature of approx. 20° C.) was 1 % by weight and the “content of dissolved MGDN” value (corresponds to a crystallization temperature of approx. 55° C.) was 5 % by weight.
